Test results from ChEMBL document CHEMBL1201862, “PubChem BioAssay data set” (2004).
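1) Cells in 96-well plates. 2) Compound, 48 h, 5 concentrations. 3) Linear interpolation between surrounding doses. 4) Unreached endpoint = highest concentration. Here, GI50 denotes the concentration required for 50% inhibition of growth.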 Calls of active or inactive are those of the source. Rule as the data show it: active = GI50 up to about 1.1 µM and inactive = higher.

Legend:
Experiment in all cases: growth of human tumour cells (NCI), 48 h
SF-539 = tested on: SF-539
NCI-H522 = tested on: NCI-H522
EKVX = tested on: EKVX
K562 = tested on: K562
MDA-MB-231 = tested on: MDA-MB-231
UO-31 = tested on: UO-31
HOP-62 = tested on: HOP-62
SNB-19 = tested on: SNB-19
MDA-MB-435 = tested on: MDA-MB-435
M14 = tested on: M14
786-0 = tested on: 786-0
HT-29 = tested on: HT-29
DU-145 = tested on: DU-145
HOP-92 = tested on: HOP-92
OVCAR-3 = tested on: OVCAR-3
NCI-H23 = tested on: NCI-H23
SF-268 = tested on: SF-268
U-251 = tested on: U-251
PC-3 = tested on: PC-3
HCC 2998 = tested on: HCC 2998

Row | Compound | GI50 (SF-539) | GI50 (NCI-H522) | GI50 (EKVX) | GI50 (K562) | GI50 (MDA-MB-231) | GI50 (UO-31) | GI50 (HOP-62) | GI50 (SNB-19) | GI50 (MDA-MB-435) | GI50 (M14) | GI50 (786-0) | GI50 (HT-29) | GI50 (DU-145) | GI50 (HOP-92) | GI50 (OVCAR-3) | GI50 (NCI-H23) | GI50 (SF-268) | GI50 (U-251) | GI50 (PC-3) | GI50 (HCC 2998)
1 | CC(C)CNC(=O)O | > 100 µM (inactive) | > 100 µM (inactive) | > 100 µM (inactive) | > 100 µM (inactive) | > 100 µM (inactive) | > 100 µM (inactive) | > 100 µM (inactive) | > 100 µM (inactive) | > 100 µM (inactive) | > 100 µM (inactive) | > 100 µM (inactive) | > 100 µM (inactive) | > 100 µM (inactive) | > 100 µM (inactive) | > 100 µM (inactive) | > 100 µM (inactive) | > 100 µM (inactive) | > 100 µM (inactive) | > 100 µM (inactive) | 
2 | CC1=NN(c2cc(Cl)c(S(=O)(=O)O)cc2Cl)C2(C1)C(Cl)C(=O)N2c1nc2ccccc2s1 (stereo not drawn) | > 100 µM (inactive) | 19.6 µM (inactive) | 44.9 µM (inactive) | > 100 µM (inactive) | 42.6 µM (inactive) | 22.2 µM (inactive) |  | > 100 µM (inactive) | 84.3 µM (inactive) | > 100 µM (inactive) | > 100 µM (inactive) | > 100 µM (inactive) | 29.3 µM (inactive) | > 100 µM (inactive) |  | 91 µM (inactive) | > 100 µM (inactive) | > 100 µM (inactive) | 27.8 µM (inactive) | > 100 µM (inactive)
3 | O=C1O[B-](c2ccccc2)(c2ccccc2)[NH+]2CCCC12 (stereo not drawn) | 55.6 µM (inactive) | 64.7 µM (inactive) | > 100 µM (inactive) | 67.6 µM (inactive) | > 100 µM (inactive) | 34.6 µM (inactive) | > 100 µM (inactive) | > 100 µM (inactive) | > 100 µM (inactive) | 40.5 µM (inactive) | 50.7 µM (inactive) | > 100 µM (inactive) | > 100 µM (inactive) | 16.7 µM (inactive) | 38.7 µM (inactive) | 74 µM (inactive) | > 100 µM (inactive) | > 100 µM (inactive) | 35 µM (inactive) | 
4 | O=[N+]([O-])c1cccc(/C=N/N=c2\ccc3ccccc3[nH]2)c1O | 1.84 µM (inactive) | 1.2 µM (inactive) | 1.48 µM (inactive) | 1.35 µM (inactive) | 2.78 µM (inactive) | 0.335 µM (active) | 0.815 µM (active) | 4.92 µM (inactive) | 2.45 µM (inactive) | 1.13 µM (inactive) | 0.658 µM (active) | 0.632 µM (active) | 2.26 µM (inactive) | 7.5 µM (inactive) | 0.185 µM (active) | 1.82 µM (inactive) | 1.14 µM (inactive) | 1.11 µM (active) | 2.7 µM (inactive) | 
5 | O=C(/N=N/c1ccc(Cl)cc1Cl)NNc1ccc(Cl)cc1Cl |  | 19.1 µM (inactive) |  | 20.8 µM (inactive) | 20.7 µM (inactive) | 12 µM (inactive) | 1.75 µM (inactive) | 28.6 µM (inactive) | 16.1 µM (inactive) | > 10 µM (inactive) | 15.3 µM (inactive) | 37.2 µM (inactive) | 14.7 µM (inactive) |  | 15.9 µM (inactive) | 17.1 µM (inactive) | 30.1 µM (inactive) | 18.5 µM (inactive) | 12.2 µM (inactive) | 11.4 µM (inactive)
6 | CC(C)CCNC(=O)c1ccc(CNC(=O)/C=C/c2ccc3ccccc3c2)cc1 |  |  | > 100 µM (inactive) | > 100 µM (inactive) | > 100 µM (inactive) | 44.1 µM (inactive) | > 100 µM (inactive) | > 100 µM (inactive) | > 100 µM (inactive) | 46.3 µM (inactive) | > 100 µM (inactive) |  | > 100 µM (inactive) | > 100 µM (inactive) | > 100 µM (inactive) | > 100 µM (inactive) | > 100 µM (inactive) | 36 µM (inactive) | > 100 µM (inactive) | > 100 µM (inactive)
7 | OC(c1ccco1)C(F)(F)c1nc2ccccc2o1 (stereo not drawn) | > 100 µM (inactive) |  | > 100 µM (inactive) | 69.8 µM (inactive) | > 100 µM (inactive) | 69.2 µM (inactive) | > 100 µM (inactive) | > 100 µM (inactive) | > 100 µM (inactive) | 29.5 µM (inactive) | > 100 µM (inactive) | > 100 µM (inactive) | > 100 µM (inactive) | > 100 µM (inactive) |  | > 100 µM (inactive) | > 100 µM (inactive) | > 100 µM (inactive) | > 100 µM (inactive) | > 100 µM (inactive)
8 | COc1ccc2c(c1)CCC1=CC3(CCC12C)SCCS3 (stereo not drawn) |  | 2.99 µM (inactive) |  | 3.72 µM (inactive) | 4.08 µM (inactive) |  | > 10 µM (inactive) | > 10 µM (inactive) | 3.74 µM (inactive) | 4.46 µM (inactive) | 5.64 µM (inactive) | 3.68 µM (inactive) | > 10 µM (inactive) | 4.97 µM (inactive) | 3.3 µM (inactive) | 6.82 µM (inactive) | 3.13 µM (inactive) | 9.73 µM (inactive) | 8.26 µM (inactive) | 7.8 µM (inactive)
9 | CC[C@H](C)C1=C(OC(C)=O)[N@+]2([O-])Oc3ccc(-c4c(O)c(O)c(-c5ccc(OC(C)=O)cc5)c(OC(C)=O)c4OC(C)=O)cc3O[C@]2([C@@H](C)CC)C(=O)N1O | 14.2 µM (inactive) | 10.6 µM (inactive) | 18.8 µM (inactive) | 11.7 µM (inactive) | 17.8 µM (inactive) | 35 µM (inactive) | 24.6 µM (inactive) | 32.1 µM (inactive) | 27.1 µM (inactive) | 28.2 µM (inactive) | 14.1 µM (inactive) | 17.6 µM (inactive) | 44.5 µM (inactive) | 3.84 µM (inactive) | 15 µM (inactive) | 29.8 µM (inactive) | 18.8 µM (inactive) | 24.3 µM (inactive) | 20.6 µM (inactive) | 
10 | O=C(c1ccccc1)c1ccc2c(c1)NC(=O)c1ccccc1SSc1ccccc1C(=O)N2 | > 100 µM (inactive) | > 100 µM (inactive) | > 100 µM (inactive) | > 100 µM (inactive) | > 100 µM (inactive) | > 100 µM (inactive) | > 100 µM (inactive) | > 100 µM (inactive) | > 100 µM (inactive) | > 100 µM (inactive) | > 100 µM (inactive) | > 100 µM (inactive) | > 100 µM (inactive) | > 100 µM (inactive) | > 100 µM (inactive) | > 100 µM (inactive) | > 100 µM (inactive) | > 100 µM (inactive) | > 100 µM (inactive) | 
11 | CSc1nc(=S)[nH]c2[nH]nc(C)c12 | > 100 µM (inactive) | 55 µM (inactive) | > 100 µM (inactive) | > 100 µM (inactive) | > 100 µM (inactive) | > 100 µM (inactive) |  | > 100 µM (inactive) | > 100 µM (inactive) | > 100 µM (inactive) | > 100 µM (inactive) | > 100 µM (inactive) | > 100 µM (inactive) |  | > 100 µM (inactive) | > 100 µM (inactive) | > 100 µM (inactive) | > 100 µM (inactive) | > 100 µM (inactive) | > 100 µM (inactive)
12 | COc1cccc(/N=N/C(=N/NC(=O)c2ccc(C)cc2)c2ccc(N(CCC#N)CCC#N)cc2OC)c1 |  | > 100 µM (inactive) | 22.9 µM (inactive) | > 100 µM (inactive) | > 100 µM (inactive) | > 100 µM (inactive) | > 100 µM (inactive) | > 100 µM (inactive) | > 100 µM (inactive) | > 100 µM (inactive) | > 100 µM (inactive) | 21.2 µM (inactive) | > 100 µM (inactive) | > 100 µM (inactive) | > 100 µM (inactive) | > 100 µM (inactive) | > 100 µM (inactive) | > 100 µM (inactive) | > 100 µM (inactive) | 8.28 µM (inactive)
13 | CCC(=O)Nc1ncnc2ncn(C(=O)CC)c12 |  | > 100 µM (inactive) | > 100 µM (inactive) | > 100 µM (inactive) | > 100 µM (inactive) | > 100 µM (inactive) | > 100 µM (inactive) | > 100 µM (inactive) | > 100 µM (inactive) | > 100 µM (inactive) | > 100 µM (inactive) | > 100 µM (inactive) | > 100 µM (inactive) | > 100 µM (inactive) | > 100 µM (inactive) | > 100 µM (inactive) | > 100 µM (inactive) | > 100 µM (inactive) | > 100 µM (inactive) | > 100 µM (inactive)
14 | NC(C(F)(F)F)(C(F)(F)F)P(=O)(Cc1ccccc1)Cc1ccccc1 | 42.8 µM (inactive) |  | > 100 µM (inactive) | > 100 µM (inactive) | > 100 µM (inactive) | > 100 µM (inactive) | 83.2 µM (inactive) | > 100 µM (inactive) | > 100 µM (inactive) | > 100 µM (inactive) | 66.1 µM (inactive) | > 100 µM (inactive) | > 100 µM (inactive) |  | > 100 µM (inactive) | > 100 µM (inactive) | 73.8 µM (inactive) | > 100 µM (inactive) | > 100 µM (inactive) | > 100 µM (inactive)
15 | CCCCNC(=S)N/C=C1\C(=O)Oc2ccccc2C1=O | 98.4 µM (inactive) |  | > 100 µM (inactive) |  | 73.8 µM (inactive) | 37.2 µM (inactive) | 80.2 µM (inactive) | 49.4 µM (inactive) | 61 µM (inactive) | 76.6 µM (inactive) | > 100 µM (inactive) | > 100 µM (inactive) | 99.3 µM (inactive) | > 100 µM (inactive) | > 100 µM (inactive) | 88.5 µM (inactive) |  | 54 µM (inactive) | 92.5 µM (inactive) | 68.7 µM (inactive)
